Target: T1, Muscarinic acetylcholine receptor M5 (Homo sapiens, UniProt P08912)
T1 sequence (P08912 whole entry): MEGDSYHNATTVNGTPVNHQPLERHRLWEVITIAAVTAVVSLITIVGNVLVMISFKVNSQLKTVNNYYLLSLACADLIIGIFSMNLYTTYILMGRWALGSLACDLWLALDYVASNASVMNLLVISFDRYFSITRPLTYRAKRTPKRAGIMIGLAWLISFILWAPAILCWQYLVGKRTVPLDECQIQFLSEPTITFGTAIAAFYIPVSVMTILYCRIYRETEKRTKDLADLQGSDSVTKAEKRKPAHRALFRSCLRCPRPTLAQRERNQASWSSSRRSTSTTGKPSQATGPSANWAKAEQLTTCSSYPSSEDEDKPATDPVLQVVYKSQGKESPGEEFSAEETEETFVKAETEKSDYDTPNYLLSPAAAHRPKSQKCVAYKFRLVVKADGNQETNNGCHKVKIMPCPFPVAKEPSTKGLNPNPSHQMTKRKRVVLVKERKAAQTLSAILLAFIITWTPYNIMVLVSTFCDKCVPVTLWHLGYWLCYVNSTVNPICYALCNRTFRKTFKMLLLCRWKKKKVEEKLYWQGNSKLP
Assay: binding competition at muscarinic M5 – biochemical, [3H]N-methylscopolamine (AID 2192)
Details: inactive by the depositor's call

## COc1ccc(CN2C(=O)C(=O)c3cc(OC(F)(F)F)ccc32)cc1 [VU0238429]
  EC50: 1710 nM

— BindingDB's records for doi:10.7270/Q2S180X7 (Vanderbilt Screening Center For Gpcrs, Ion Channels and …, 2009)
